# Source: ChEMBL document CHEMBL1152560, “Substituted 2-arylbenzothiazoles as kinase inhibitors: hit-to-lead optimization” (Bioorg Med Chem, 2009)
# Tests used:
# [1] = biological target: Mitogen-activated protein kinase 9 (Homo sapiens) (UniProt P45984); assay: Residual activity of JNK2 at 10 uM by microplate scintillation counting
# [2] = biological target: T1, Serine/threonine-protein kinase TAO2 (Homo sapiens) (UniProt Q9UL54); assay: Residual activity of TAOK2 at 1 uM by microplate scintillation counting
# T1 sequence (whole entry): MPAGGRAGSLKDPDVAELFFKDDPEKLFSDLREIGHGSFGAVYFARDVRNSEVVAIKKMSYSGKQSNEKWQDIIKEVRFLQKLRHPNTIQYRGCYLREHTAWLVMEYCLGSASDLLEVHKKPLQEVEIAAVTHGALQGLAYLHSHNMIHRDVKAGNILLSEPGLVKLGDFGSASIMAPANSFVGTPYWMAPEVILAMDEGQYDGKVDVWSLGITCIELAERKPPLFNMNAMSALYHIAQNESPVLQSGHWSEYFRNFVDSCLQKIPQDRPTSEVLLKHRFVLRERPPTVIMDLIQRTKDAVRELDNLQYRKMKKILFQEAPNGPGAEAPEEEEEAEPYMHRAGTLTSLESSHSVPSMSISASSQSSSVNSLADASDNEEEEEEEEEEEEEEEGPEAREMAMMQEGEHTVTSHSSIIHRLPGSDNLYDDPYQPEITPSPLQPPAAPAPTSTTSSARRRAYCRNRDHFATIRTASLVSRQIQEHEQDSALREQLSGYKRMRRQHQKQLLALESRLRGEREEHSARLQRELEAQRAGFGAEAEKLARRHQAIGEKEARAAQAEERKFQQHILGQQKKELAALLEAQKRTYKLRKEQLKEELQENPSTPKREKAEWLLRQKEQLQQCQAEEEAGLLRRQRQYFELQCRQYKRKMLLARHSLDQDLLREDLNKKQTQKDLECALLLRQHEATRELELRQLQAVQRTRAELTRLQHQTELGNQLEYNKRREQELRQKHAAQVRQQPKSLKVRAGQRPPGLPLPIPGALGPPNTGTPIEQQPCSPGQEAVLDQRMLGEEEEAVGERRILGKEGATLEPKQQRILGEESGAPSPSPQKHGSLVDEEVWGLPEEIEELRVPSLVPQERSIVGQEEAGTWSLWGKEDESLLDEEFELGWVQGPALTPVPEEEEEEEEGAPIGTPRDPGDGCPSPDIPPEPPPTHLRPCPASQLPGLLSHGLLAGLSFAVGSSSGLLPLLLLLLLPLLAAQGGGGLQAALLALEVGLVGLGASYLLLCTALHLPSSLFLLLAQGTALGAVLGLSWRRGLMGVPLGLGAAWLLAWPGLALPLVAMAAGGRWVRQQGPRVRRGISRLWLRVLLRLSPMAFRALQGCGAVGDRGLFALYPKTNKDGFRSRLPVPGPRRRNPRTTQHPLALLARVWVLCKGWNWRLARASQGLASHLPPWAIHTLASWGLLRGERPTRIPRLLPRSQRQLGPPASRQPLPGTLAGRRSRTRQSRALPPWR
# [3] = biological target: Serine/threonine-protein kinase PAK 4 (Homo sapiens) (UniProt O96013); assay: Residual activity of PAK4 at 0.1 uM by microplate scintillation counting
# [4] = biological target: Interleukin-1 receptor-associated kinase 1 (Homo sapiens) (UniProt P51617); assay: Residual activity of IRAKI at 1 uM by microplate scintillation counting
# [5] = biological target: Vascular endothelial growth factor receptor 1 (Homo sapiens) (UniProt P17948); assay: Residual activity of VEGFR1 at 10 uM by microplate scintillation counting
# [6] = biological target: Serine/threonine-protein kinase B-raf (Homo sapiens) (UniProt P15056); assay: Residual activity of Wild type B-RAF at 10 uM by microplate scintillation counting
# Angiopoietin-1 receptor = Angiopoietin-1 receptor (Homo sapiens, UniProt Q02763); assay: Residual activity of TIE2 at 1 uM by microplate scintillation counting
# [7] = biological target: T2, Ephrin type-B receptor 4 (Homo sapiens) (UniProt P54760); assay: Residual activity of EPHB4 at 10 uM by microplate scintillation counting
# T2 sequence (whole entry): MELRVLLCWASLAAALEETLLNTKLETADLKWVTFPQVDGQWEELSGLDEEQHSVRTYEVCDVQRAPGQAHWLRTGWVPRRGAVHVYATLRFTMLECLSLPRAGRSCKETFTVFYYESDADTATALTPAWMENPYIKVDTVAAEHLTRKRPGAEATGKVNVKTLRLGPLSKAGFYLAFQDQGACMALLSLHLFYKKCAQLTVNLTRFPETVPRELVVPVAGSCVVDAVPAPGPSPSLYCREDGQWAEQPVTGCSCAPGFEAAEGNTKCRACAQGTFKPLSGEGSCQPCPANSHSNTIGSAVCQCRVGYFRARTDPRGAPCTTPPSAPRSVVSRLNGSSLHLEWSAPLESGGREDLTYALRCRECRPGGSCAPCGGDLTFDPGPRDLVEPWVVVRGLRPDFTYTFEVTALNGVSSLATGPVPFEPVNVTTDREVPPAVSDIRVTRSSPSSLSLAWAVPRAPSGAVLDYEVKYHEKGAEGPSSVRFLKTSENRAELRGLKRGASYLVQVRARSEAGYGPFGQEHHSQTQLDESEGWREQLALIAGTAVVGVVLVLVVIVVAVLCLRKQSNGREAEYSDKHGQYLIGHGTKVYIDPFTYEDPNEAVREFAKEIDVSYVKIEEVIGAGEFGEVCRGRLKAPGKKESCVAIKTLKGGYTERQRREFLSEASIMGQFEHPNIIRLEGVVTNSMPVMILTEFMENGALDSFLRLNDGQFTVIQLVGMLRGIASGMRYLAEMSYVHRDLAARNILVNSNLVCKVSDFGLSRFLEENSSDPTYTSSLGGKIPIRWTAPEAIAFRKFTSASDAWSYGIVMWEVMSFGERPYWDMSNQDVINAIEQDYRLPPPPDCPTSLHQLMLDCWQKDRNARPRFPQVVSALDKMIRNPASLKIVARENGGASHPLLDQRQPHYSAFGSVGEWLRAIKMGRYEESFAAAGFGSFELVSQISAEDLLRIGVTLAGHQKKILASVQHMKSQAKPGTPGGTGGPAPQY
# [8] = biological target: Cyclin-dependent kinase 2/cyclin E1 (Homo sapiens) (UniProt P24864+P24941); assay: Residual activity of CDK2/Cyclin E at 0.1uM by microplate scintillation counting; assay type: protein-complex assay
# [9] = biological target: CDK3/cyclin E (Homo sapiens) (UniProt P24864+O96020+Q00526); assay: Residual activity of CDK3/Cyclin E at 10 uM by microplate scintillation counting; assay type: protein-complex assay
# [10] = biological target: Casein kinase I isoform alpha (Homo sapiens) (UniProt P48729); assay: Residual activity of CK1alpha1 at 0.1 uM by microplate scintillation counting
# Chain of Casein kinase I isoform alpha (Homo sapiens) (P48729 2-337 limits assumed): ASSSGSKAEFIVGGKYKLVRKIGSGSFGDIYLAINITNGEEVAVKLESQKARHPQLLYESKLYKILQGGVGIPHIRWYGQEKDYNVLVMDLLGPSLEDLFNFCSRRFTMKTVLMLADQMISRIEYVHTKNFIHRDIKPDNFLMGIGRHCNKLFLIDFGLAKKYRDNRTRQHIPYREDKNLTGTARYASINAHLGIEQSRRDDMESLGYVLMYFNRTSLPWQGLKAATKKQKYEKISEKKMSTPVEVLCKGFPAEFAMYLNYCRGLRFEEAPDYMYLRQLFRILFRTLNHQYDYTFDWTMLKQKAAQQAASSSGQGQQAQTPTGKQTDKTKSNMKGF
# Chain of Interleukin-1 receptor-associated kinase 1 (Homo sapiens) (P51617 whole entry, looked up): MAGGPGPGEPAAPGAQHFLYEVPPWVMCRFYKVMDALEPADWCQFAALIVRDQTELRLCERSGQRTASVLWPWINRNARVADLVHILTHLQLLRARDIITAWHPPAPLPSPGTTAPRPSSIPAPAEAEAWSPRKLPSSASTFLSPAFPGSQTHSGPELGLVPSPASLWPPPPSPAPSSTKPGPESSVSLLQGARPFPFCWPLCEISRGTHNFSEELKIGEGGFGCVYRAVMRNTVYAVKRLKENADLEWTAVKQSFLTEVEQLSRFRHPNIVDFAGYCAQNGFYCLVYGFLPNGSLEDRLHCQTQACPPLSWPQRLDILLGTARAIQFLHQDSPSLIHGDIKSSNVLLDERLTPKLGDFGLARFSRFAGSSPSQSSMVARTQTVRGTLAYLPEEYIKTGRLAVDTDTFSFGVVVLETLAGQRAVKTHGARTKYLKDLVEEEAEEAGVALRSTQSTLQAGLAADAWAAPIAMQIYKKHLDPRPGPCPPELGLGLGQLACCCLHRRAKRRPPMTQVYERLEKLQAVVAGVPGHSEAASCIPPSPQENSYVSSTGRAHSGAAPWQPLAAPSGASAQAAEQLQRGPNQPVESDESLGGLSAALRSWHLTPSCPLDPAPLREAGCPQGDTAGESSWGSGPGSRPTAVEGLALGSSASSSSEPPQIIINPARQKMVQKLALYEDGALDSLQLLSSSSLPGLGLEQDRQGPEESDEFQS
# Chain of Serine/threonine-protein kinase PAK 4 (Homo sapiens) (O96013 whole entry, looked up): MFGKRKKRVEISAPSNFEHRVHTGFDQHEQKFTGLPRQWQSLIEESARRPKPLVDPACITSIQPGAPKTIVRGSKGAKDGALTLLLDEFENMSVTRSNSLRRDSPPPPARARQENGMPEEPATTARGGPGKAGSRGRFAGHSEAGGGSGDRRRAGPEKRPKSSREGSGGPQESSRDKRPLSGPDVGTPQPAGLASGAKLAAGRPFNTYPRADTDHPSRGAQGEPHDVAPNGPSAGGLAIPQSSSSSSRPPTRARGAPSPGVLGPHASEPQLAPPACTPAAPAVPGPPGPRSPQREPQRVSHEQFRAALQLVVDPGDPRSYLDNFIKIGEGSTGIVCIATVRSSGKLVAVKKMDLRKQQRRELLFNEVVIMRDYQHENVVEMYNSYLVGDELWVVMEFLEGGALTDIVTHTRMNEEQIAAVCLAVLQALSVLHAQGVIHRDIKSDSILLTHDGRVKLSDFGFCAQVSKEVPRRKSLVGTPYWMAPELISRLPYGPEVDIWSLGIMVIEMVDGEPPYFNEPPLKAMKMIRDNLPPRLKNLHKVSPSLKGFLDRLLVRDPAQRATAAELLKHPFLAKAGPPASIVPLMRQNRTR
# Chain of Angiopoietin-1 receptor (Q02763 whole entry): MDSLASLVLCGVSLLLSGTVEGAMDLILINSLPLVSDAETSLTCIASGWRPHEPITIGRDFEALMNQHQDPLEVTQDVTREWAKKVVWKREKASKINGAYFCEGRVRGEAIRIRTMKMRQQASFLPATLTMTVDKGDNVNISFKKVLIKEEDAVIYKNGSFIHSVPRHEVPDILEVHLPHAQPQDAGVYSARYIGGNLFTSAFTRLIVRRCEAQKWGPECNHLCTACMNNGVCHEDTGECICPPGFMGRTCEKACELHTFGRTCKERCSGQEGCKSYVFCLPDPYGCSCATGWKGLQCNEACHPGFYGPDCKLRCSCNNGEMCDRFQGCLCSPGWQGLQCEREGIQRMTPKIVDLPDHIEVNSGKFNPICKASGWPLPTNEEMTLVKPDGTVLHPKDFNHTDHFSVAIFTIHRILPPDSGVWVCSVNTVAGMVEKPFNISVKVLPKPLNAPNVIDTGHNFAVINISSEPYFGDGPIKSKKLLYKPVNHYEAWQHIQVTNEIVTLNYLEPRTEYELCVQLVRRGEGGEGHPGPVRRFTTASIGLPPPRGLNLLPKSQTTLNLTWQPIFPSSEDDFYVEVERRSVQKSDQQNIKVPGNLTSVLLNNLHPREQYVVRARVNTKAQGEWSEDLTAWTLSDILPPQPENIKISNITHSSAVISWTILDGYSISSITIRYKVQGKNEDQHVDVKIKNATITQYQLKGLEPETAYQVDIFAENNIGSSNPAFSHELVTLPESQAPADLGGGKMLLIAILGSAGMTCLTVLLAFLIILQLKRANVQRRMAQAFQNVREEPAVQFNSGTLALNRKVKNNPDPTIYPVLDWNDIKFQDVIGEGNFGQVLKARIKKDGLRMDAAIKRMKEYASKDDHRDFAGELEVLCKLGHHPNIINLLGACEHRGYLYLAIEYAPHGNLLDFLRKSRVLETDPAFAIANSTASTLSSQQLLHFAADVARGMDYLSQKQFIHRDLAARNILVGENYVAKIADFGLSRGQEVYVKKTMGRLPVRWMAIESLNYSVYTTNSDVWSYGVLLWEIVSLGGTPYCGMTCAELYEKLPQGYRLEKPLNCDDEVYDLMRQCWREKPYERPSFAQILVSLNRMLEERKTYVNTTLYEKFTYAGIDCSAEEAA
# Chain of CDK3/cyclin E (Homo sapiens) (O96020 whole entry, looked up, canonical isoform): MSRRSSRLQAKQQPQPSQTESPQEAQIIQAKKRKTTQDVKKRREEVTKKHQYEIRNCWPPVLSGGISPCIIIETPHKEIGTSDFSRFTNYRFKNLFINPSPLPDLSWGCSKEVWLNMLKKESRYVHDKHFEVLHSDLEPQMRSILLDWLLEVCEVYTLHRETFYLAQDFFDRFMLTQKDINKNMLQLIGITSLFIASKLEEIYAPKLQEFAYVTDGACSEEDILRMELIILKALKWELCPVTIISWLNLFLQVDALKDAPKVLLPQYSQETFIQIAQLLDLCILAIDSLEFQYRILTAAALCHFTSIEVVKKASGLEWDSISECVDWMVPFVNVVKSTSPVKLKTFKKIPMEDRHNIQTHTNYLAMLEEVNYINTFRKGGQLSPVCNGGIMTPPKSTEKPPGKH
# Chain of CDK3/cyclin E (Homo sapiens) (P24864 whole entry, looked up, canonical isoform): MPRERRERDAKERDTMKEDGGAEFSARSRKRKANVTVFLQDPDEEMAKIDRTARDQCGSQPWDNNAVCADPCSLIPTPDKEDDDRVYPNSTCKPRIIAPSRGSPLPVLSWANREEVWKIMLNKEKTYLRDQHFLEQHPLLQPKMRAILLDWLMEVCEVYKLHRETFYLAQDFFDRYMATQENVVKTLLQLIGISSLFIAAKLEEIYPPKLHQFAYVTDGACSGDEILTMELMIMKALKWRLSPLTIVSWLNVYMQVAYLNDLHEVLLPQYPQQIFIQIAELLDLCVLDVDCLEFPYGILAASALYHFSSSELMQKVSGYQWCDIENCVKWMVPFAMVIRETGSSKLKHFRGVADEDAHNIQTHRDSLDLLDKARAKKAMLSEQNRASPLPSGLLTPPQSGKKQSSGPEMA
# Chain of CDK3/cyclin E (Homo sapiens) (Q00526 whole entry, looked up, canonical isoform): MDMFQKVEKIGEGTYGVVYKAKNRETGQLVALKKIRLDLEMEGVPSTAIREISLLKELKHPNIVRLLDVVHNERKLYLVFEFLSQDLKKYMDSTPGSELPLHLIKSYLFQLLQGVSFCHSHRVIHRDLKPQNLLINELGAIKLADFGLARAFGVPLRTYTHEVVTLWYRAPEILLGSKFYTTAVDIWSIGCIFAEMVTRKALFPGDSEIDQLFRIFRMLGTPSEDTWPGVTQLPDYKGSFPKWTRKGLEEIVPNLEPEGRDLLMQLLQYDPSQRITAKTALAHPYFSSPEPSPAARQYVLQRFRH
# Chain of Mitogen-activated protein kinase 9 (Homo sapiens) (P45984 whole entry, looked up): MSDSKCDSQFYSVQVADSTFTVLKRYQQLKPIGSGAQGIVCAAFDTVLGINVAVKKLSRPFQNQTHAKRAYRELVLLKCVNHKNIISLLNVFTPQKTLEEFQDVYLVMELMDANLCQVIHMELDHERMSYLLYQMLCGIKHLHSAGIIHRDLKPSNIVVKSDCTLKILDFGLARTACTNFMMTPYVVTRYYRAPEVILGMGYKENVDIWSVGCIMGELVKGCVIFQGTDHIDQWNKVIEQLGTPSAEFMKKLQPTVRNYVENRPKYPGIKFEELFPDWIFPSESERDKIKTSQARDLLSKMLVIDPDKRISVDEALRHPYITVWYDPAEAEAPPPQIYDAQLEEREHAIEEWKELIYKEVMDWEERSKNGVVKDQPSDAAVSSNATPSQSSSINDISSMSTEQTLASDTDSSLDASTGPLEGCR
residual activity [1] [%],residual activity [2] [%],residual activity [3] [%],residual activity [4] [%],residual activity [5] [%],residual activity [6] [%],residual activity (Angiopoietin-1 receptor) [%],residual activity [7] [%],residual activity [8] [%],residual activity [9] [%],residual activity [10] [%],SMILES
93,99,96,58,28,51,23,122,93,113,102,COc1cc2c(Oc3ccc(-c4nc5ccccc5s4)cc3)ncnc2cc1OCCCN1CCCC1
96,97,102,74,35,70,22,154,86,130,101,COc1cc2c(Oc3ccc(-c4nc5ccccc5s4)cc3)ncnc2cc1OCCCN1CCN(C)CC1
122,101,99,93,14,74,16,99,92,119,93,COc1cc2c(Oc3ccc(-c4nc5ccccc5s4)cc3F)ncnc2cc1OCCCN1CCN(C)CC1
